# Measured values as given in patent US20100286092A1, “BETA-LACTAMASE INHIBITORS” (priority 2007, published 2010).
# What was measured:
# Conditions in all cases: in the presence of a fixed amount (8 μg/mL) of Ceftazidime; CAMHB, 16-20 hours at 37° C.
# [1] = tested on: E. coli expressing the Class A ESBL SHV-5; assay type: cell-based
# Excerpt: (§1) To determine the ability of test compounds to potentiate the inhibition of the growth of bacterial strains producing beta-lactamase enzymes, classic cell based screening assays were employed. Four bacteria strains producing beta-lactamase enzymes were used: K. pneumoniae expressing the Class A Extended Spectrum Beta-Lactamase (ESBL) CTX-M-15, E. coli expressing the Class A ESBL SHV-5, E. cloacae expressing the Class C P99+, and K. pneumoniae expressing the Class A carbapenemase KPC-2. In order to evaluate the ability of test compounds to inhibit beta-lactamase activity, Applicants used a modification of the broth microdilution assay. The assay was conducted in Cation Adjusted Mueller Hinton Broth (CAMHB, BD #212322, BD Diagnostic Systems, Sparks, Md.). Bacteria strains were grown for 3-5 hours in CAMBH broth. All four strains were grown in presence of 50 μg/mL ampicillin to ensure resistance is maintained. In the meantime, test compounds were diluted in DMSO to a 0.1 mg/mL stock. The compounds were added to a microtiter plate and were diluted in 2-fold serial dilutions in CAMHB in a final concentration range of 8 μg/mL to 0.015 μg/ml. An overlay of CAMHB containing a cephalosporin was added to the compounds at a final static concentration of 8 μg/ml. […] Each of these compound plates are made in quadruplicate, one for each bacteria strain. In addition to the titration of test compounds the MICs of a panel of cephalosporins is also tested to ensure the strains are behaving consistently from test to test. Once the test compound and cephalosporin are added the plates can be inoculated. Inocula are conducted according to CLSI broth microdilution method. After inoculation the plates are incubated for 16-20 hours at 37° C. then the Minimal Inhibitory Concentration (MIC) of the test compound is determined visually.
# (§2) Using the methodology described above, examples of the current invention were evaluated for their ability to inhibit the growth of β-lactamase producing bacteria in the presence of a β-lactam antibiotic. […] NT=Not Tested.
# [2] = tested on: K. pneumoniae expressing the Class A Extended Spectrum Beta-Lactamase (ESBL) CTX-M-15; assay type: cell-based
# Excerpt: as §1, §2
# [3] = tested on: K. pneumoniae expressing the Class A carbapenemase KPC-2
# Excerpt: as §1, §2
# [4] = tested on: E. cloacae expressing the Class C P99+; assay type: cell-based
# Excerpt: as §1, §2
SMILES,"MIC of example compound, E. coli SHV-5 + 8 μg/mL CAZ [1]","MIC of example compound, K. pneumoniae CTX-M-15 + 8 μg/mL CAZ [2]","MIC of example compound, K. pneumoniae KPC-2 + 8 μg/mL CAZ [3]","MIC of example compound, E. cloacae P99 AmpC + 8 μg/mL CAZ [4]"
"O=C(Cc1cccs1)N[C@@H](Cc1cccc(C(=O)O)c1O)B(O)O [Example 1, (1R)-1-(2-thiophene-2-yl-acetylamino)-2-(2-hydroxy-3-carboxyphenyl)ethyl-1-boronic acid]",C (C represents an MIC of <1 μg/mL),C (C represents an MIC of <1 μg/mL),C (C represents an MIC of <1 μg/mL),–
"O=C(O)COc1cccc(CC(=O)N[C@@H](Cc2cccc(C(=O)O)c2O)B(O)O)c1 [Example 7, (1R)-1-[3-(carboxymethoxy)-phenyl]acetylamino-(3-carboxy-2-hydroxy)benzyl-methylboronic acid]",C (C represents an MIC of <1 μg/mL),C (C represents an MIC of <1 μg/mL),C (C represents an MIC of <1 μg/mL),–
"O=C(Cc1cc(Br)cs1)N[C@@H](Cc1cccc(C(=O)O)c1O)B(O)O [Example 9, (1R)-1-(2-(4-bromo-thiophen-2-nyl)acetylamino)-2-(2-hydroxy-3-carboxyphenyl)ethyl-1-boronic acid]",C (C represents an MIC of <1 μg/mL),C (C represents an MIC of <1 μg/mL),C (C represents an MIC of <1 μg/mL),–
"CCC(=O)N[C@@H](Cc1cccc(C(=O)O)c1O)B(O)O [Example 16, (1R)-1-(propionylamino)-2-(2-hydroxy-3-carboxyphenyl)ethyl-1-boronic acid]",–,C (C represents an MIC of <1 μg/mL),C (C represents an MIC of <1 μg/mL),C (C represents an MIC of <1 μg/mL)
"COc1ccc(OC)c(CC(=O)N[C@@H](Cc2cccc(C(=O)O)c2O)B(O)O)c1 [Example 17, (1R)-1-(2-(2,5-dimethoxyphenyl)-acetylamino)-2-(2-hydroxy-3-carboxyphenyl)ethyl-1-boronic acid]",A (A represents an MIC>8 μg/mL),C (C represents an MIC of <1 μg/mL),–,C (C represents an MIC of <1 μg/mL)
"O=C(CO)N[C@@H](Cc1cccc(C(=O)O)c1O)B(O)O [Example 19, (1R)-1-Hydroxyacetylamino-1-(3-carboxy-2-hydroxy)benzyl-methyl boronic acid]",A (A represents an MIC>8 μg/mL),C (C represents an MIC of <1 μg/mL),C (C represents an MIC of <1 μg/mL),–
"O=C(O)c1cccc(C[C@H](NC(=O)C2CC2)B(O)O)c1O [Example 20, (1R)-1-Cyclopropanecarbonyl-amino-1-(3-carboxy-2-hydroxy)benzyl-methylboronic acid]",–,C (C represents an MIC of <1 μg/mL),C (C represents an MIC of <1 μg/mL),C (C represents an MIC of <1 μg/mL)
"CCCCCC(=O)N[C@@H](Cc1cccc(C(=O)O)c1O)B(O)O [Example 21, (1R)-1-Hexanoylamino-(3-carboxy-2-hydroxy)benzyl-methylboronic acid]",C (C represents an MIC of <1 μg/mL),C (C represents an MIC of <1 μg/mL),C (C represents an MIC of <1 μg/mL),–
"O=C(N[C@@H](Cc1cccc(C(=O)O)c1O)B(O)O)c1ccc(F)cc1 [Example 26, (1R)-1-(4-Fluorobenzoylamino)-(3-carboxy-2-hydroxy)benzyl-methylboronic acid]",–,C (C represents an MIC of <1 μg/mL),C (C represents an MIC of <1 μg/mL),C (C represents an MIC of <1 μg/mL)
"COc1cccc(C(=O)N[C@@H](Cc2cccc(C(=O)O)c2O)B(O)O)c1 [Example 29, (1R)-1-(3-methoxybenzoylamino)-2-(2-hydroxy-3-carboxyphenyl)ethyl-1-boronic acid]",C (C represents an MIC of <1 μg/mL),C (C represents an MIC of <1 μg/mL),C (C represents an MIC of <1 μg/mL),–
"COc1ccccc1C(=O)N[C@@H](Cc1cccc(C(=O)O)c1O)B(O)O [Example 34, (1R)-1-(2-methoxybenzoylamino)-2-(2-hydroxy-3-carboxyphenyl)ethyl-1-boronic acid]",A (A represents an MIC>8 μg/mL),–,C (C represents an MIC of <1 μg/mL),–
"O=C(N[C@@H](Cc1cccc(C(=O)O)c1O)B(O)O)c1ccc(O)cc1 [Example 36, (1R)-1-(4-Hydroxybenzoyl)-amino-1-(3-carboxy-2-hydroxy)benzyl-methylboronic acid]",–,C (C represents an MIC of <1 μg/mL),C (C represents an MIC of <1 μg/mL),C (C represents an MIC of <1 μg/mL)
"CC(=O)NCC(=O)N[C@@H](Cc1cccc(C(=O)O)c1O)B(O)O [Example 37, (1R)-1-(2-acetamidoacetylamino)-2-(2-hydroxy-3-carboxyphenyl)ethyl-1-boronic acid]",–,C (C represents an MIC of <1 μg/mL),C (C represents an MIC of <1 μg/mL),C (C represents an MIC of <1 μg/mL)
"NCCC(=O)N[C@@H](Cc1cccc(C(=O)O)c1O)B(O)O.O=CO [Example 38, (1R)-1-(3-aminopropanoylamino)-2-(2-hydroxy-3-carboxyphenyl)ethyl-1-boronic acid formate salt]",A (A represents an MIC>8 μg/mL),A (A represents an MIC>8 μg/mL),C (C represents an MIC of <1 μg/mL),–
"O=C(O)c1cccc(C[C@H](NC(=O)c2c(Cl)cccc2Cl)B(O)O)c1O [Example 43, (1R)-1-(2,6-Dichlorobenzoyl)-amino-1-(3-carboxy-2-hydroxy)benzyl-methylboronic acid]",A (A represents an MIC>8 μg/mL),A (A represents an MIC>8 μg/mL),A (A represents an MIC>8 μg/mL),–
"Cn1nc(-c2ccccc2)cc1C(=O)N[C@@H](Cc1cccc(C(=O)O)c1O)B(O)O [Example 44, (1R)-1-(1-methyl-3-phenyl-1H-pyrazole-5-carbonyl-amino)-2-(2-hydroxy-3-carboxyphenyl)ethyl-1-boronic acid]",A (A represents an MIC>8 μg/mL),A (A represents an MIC>8 μg/mL),–,–
"O=C(N[C@@H](Cc1cccc(C(=O)O)c1O)B(O)O)c1ccno1 [Example 46, (1R)-1-(isoxazole-5-carbonyl-amino)-2-(2-hydroxy-3-carboxyphenyl)ethyl-1-boronic acid]",–,C (C represents an MIC of <1 μg/mL),C (C represents an MIC of <1 μg/mL),C (C represents an MIC of <1 μg/mL)
"Cc1nc(-c2cccc(C(=O)N[C@@H](Cc3cccc(C(=O)O)c3O)B(O)O)c2)no1 [Example 47, (1R)-1-[3-(5-methyl-[1,2,4]oxadiazol-3-yl)-benzoyl]-amino-1-(3-carboxy-2-hydroxy)benzyl-methylboronic acid]",A (A represents an MIC>8 μg/mL),A (A represents an MIC>8 μg/mL),–,–
"O=C(N[C@@H](Cc1cccc(C(=O)O)c1O)B(O)O)c1ccc(N2CCOCC2)nc1 [Example 48, (1R)-1-(6-morpholin-4-yl-pyridine-3-carbonyl)-amino-1-(3-carboxy-2-hydroxy)benzyl-methylboronic acid]",A (A represents an MIC>8 μg/mL),–,C (C represents an MIC of <1 μg/mL),–
